Results published in patent US20140045873A1, “NOVEL MICROBIOCIDES” (SYNGENTA PARTICIPATIONS AG, priority 2010, published 2014).
Like-named read-outs stand apart in the source and are kept apart here.

Columns and labels:
[1] = system: Glomerella lagenarium (Colletotrichum lagenarium); assay: Glomerella lagenarium (Colletotrichum lagenarium) / liquid culture (anthracnose); assay type: cell-based; details: Colletotrichum orbiculare; 200 ppm, liquid culture, PDB, 24° C., 3-4 days after application; read-out: control of Glomerella lagenarium (inhibition of growth, photometric)
[2] = system: Phaeosphaeria nodorum (Septoria nodorum); details: Parastagonospora nodorum, in Triticum aestivum, foliar, read-out: control of Phaeosphaeria nodorum (percent disease control compared to untreated)
[3] = system: Puccinia recondita f. sp. tritici; details: in Triticum aestivum, foliar, read-out: control of Puccinia recondita f. sp. tritici (percent disease control compared to untreated)
Gaeumannomyces graminis = Gaeumannomyces graminis / liquid culture (take-all of cereals); assay type: cell-based; details: 200 ppm, liquid culture, PDB, 24° C., 4-5 days after application, read-out: control of Gaeumannomyces graminis (inhibition of growth, photometric)
[4] = system: Puccinia recondita f. sp. tritici; details: in Triticum aestivum, foliar, read-out: control of Puccinia recondita f. sp. tritici (percent disease control compared to untreated); remark: listed apart in the source
Pythium ultimum = Pythium ultimum / liquid culture (seedling damping off); assay type: cell-based; details: Globisporangium ultimum, potato dextrose broth, 24° C., 2-3 days after application, read-out: control of Pythium ultimum (inhibition of growth, photometric)
Pyrenophora teres = details: in Hordeum vulgare, foliar, read-out: control of Pyrenophora teres (disease control compared to untreated)
[5] = system: Mycosphaerella arachidis (Cercospora arachidicola); assay: Mycosphaerella arachidis (Cercospora arachidicola) / liquid culture (early leaf spot); assay type: cell-based; details: 200 ppm, liquid culture, PDB, 24° C., 4-5 days after application, read-out: control of Mycosphaerella arachidis (inhibition of growth, photometric)
[6] = system: Mycosphaerella graminicola (Septoria tritici); assay: Mycosphaerella graminicola (Septoria tritici) / liquid culture (Septoria blotch); assay type: cell-based; details: Zymoseptoria tritici; 200 ppm, liquid culture, PDB, 24° C., 4-5 days after application; read-out: control of Mycosphaerella graminicola (inhibition of growth, photometric)
[7] = system: Thanatephorus cucumeris (Rhizoctonia solani); details: read-out: control of Thanatephorus cucumeris (inhibition of growth, photometric)
[8] = system: Botryotinia fuckeliana (Botrytis cinerea); assay: Botryotinia fuckeliana (Botrytis cinerea) / liquid culture (gray mould); assay type: cell-based; details: Vogels broth, 24° C., 3-4 days after application, read-out: control of Botryotinia fuckeliana (inhibition of growth, photometric)
Excerpt: Botryotinia Fuckeliana (Botrytis cinerea)/Liquid Culture (Gray Mould): Conidia of the fungus from cryogenic storage were directly mixed into nutrient broth (Vogels broth). […].45

Alternaria solani = Alternaria solani / tomato / leaf disc (early blight); assay type: in vivo; details: foliar, tomato leaf disks cv. Baby, inoculated 2 days after application, assessed 5-7 days after application, read-out: control of Alternaria solani (percent disease control compared to untreated)
Procedure: The inoculated leaf disks were incubated at 23° C./21° C. […].44

[9] = system: Monographella nivalis (Microdochium nivale); assay: Monographella nivalis (Microdochium nivale) / liquid culture (foot rot cereals); assay type: cell-based; details: PDB, 24° C., 4-5 days after application, read-out: control of Monographella nivalis (inhibition of growth, photometric)

C/C(=N\OCCCc1cccc(-c2nc(C)cc(C)n2)n1)c1cccc(C)n1 [P.05]
≥ 80%: inhibition at 200 ppm [1] | pest or weed control at 200 ppm [2] | pest or weed control at 200 ppm [3] | inhibition at 200 ppm (Gaeumannomyces graminis) | pest or weed control at 200 ppm [4] | inhibition at 200 ppm (Pythium ultimum) | pest or weed control at 200 ppm (Pyrenophora teres) | inhibition at 200 ppm [5] | inhibition at 200 ppm [6] | inhibition at 200 ppm [7]

CCOc1cc(C)nc(-c2cccc(CCCO/N=C(\C)c3cccc(C)n3)n2)c1 [P.12]
≥ 80%: inhibition at 200 ppm [8] | inhibition at 200 ppm [1] | pest or weed control at 200 ppm (Alternaria solani) | pest or weed control at 200 ppm [2] | pest or weed control at 200 ppm [3] | pest or weed control at 200 ppm [4] | inhibition at 200 ppm (Pythium ultimum) | pest or weed control at 200 ppm (Pyrenophora teres) | inhibition at 200 ppm [5] | inhibition at 200 ppm [7] | inhibition at 200 ppm [9]

COc1cc(C)nc(-c2cccc(CCCO/N=C(\C)c3cc(C)cc(C)n3)n2)c1 [P.13]
≥ 80%: inhibition at 200 ppm [8] | inhibition at 200 ppm [1] | pest or weed control at 200 ppm (Alternaria solani) | pest or weed control at 200 ppm [2] | pest or weed control at 200 ppm [3] | inhibition at 200 ppm (Gaeumannomyces graminis) | pest or weed control at 200 ppm [4] | inhibition at 200 ppm (Pythium ultimum) | pest or weed control at 200 ppm (Pyrenophora teres) | inhibition at 200 ppm [5] | inhibition at 200 ppm [6] | inhibition at 200 ppm [9]

C/C(=N\OCCCc1cccc(-c2cc(Br)cc(C)n2)n1)c1cccc(C)n1 [P.18]
≥ 80%: inhibition at 200 ppm [1] | pest or weed control at 200 ppm [2] | pest or weed control at 200 ppm [3] | inhibition at 200 ppm (Gaeumannomyces graminis) | pest or weed control at 200 ppm [4] | inhibition at 200 ppm (Pythium ultimum) | pest or weed control at 200 ppm (Pyrenophora teres) | inhibition at 200 ppm [5] | inhibition at 200 ppm [6] | inhibition at 200 ppm [9]

C/C(=N\OCCCc1cccc(-c2cc(C)cc(C)n2)n1)c1cccc(C)n1 [P.19]
≥ 80%: pest or weed control at 200 ppm [2] | pest or weed control at 200 ppm [3] | inhibition at 200 ppm (Gaeumannomyces graminis) | pest or weed control at 200 ppm [4] | inhibition at 200 ppm (Pythium ultimum) | pest or weed control at 200 ppm (Pyrenophora teres) | inhibition at 200 ppm [5] | inhibition at 200 ppm [6]

C/C(=N\OCCCc1cccc(-c2cccc(C)n2)n1)c1cccc(C)n1 [P.21]
≥ 80%: inhibition at 200 ppm [8] | inhibition at 200 ppm [1] | pest or weed control at 200 ppm (Alternaria solani) | pest or weed control at 200 ppm [2] | pest or weed control at 200 ppm [3] | inhibition at 200 ppm (Gaeumannomyces graminis) | pest or weed control at 200 ppm [4] | inhibition at 200 ppm (Pythium ultimum) | pest or weed control at 200 ppm (Pyrenophora teres) | inhibition at 200 ppm [5] | inhibition at 200 ppm [6]

CON=C(C)c1ccc(-c2cccc(CCCO/N=C(\C)c3cccc(C)n3)n2)nc1C [P.22]
≥ 80%: inhibition at 200 ppm [8] | inhibition at 200 ppm [1] | pest or weed control at 200 ppm (Alternaria solani) | pest or weed control at 200 ppm [2] | pest or weed control at 200 ppm [3] | inhibition at 200 ppm (Gaeumannomyces graminis) | pest or weed control at 200 ppm [4] | pest or weed control at 200 ppm (Pyrenophora teres) | inhibition at 200 ppm [5] | inhibition at 200 ppm [6]

C=CCOc1cc(C)nc(-c2cccc(CCCO/N=C(\C)c3cccc(C)n3)n2)c1 [P.25]
≥ 80%: inhibition at 200 ppm [8] | inhibition at 200 ppm [1] | pest or weed control at 200 ppm [2] | pest or weed control at 200 ppm [3] | inhibition at 200 ppm (Gaeumannomyces graminis) | pest or weed control at 200 ppm [4] | inhibition at 200 ppm (Pythium ultimum) | pest or weed control at 200 ppm (Pyrenophora teres) | inhibition at 200 ppm [5] | inhibition at 200 ppm [6] | inhibition at 200 ppm [7] | inhibition at 200 ppm [9]

C/C(=N\OCCCc1cccc(-c2cc(OC(C)C)cc(C)n2)n1)c1cccc(C)n1 [P.27]
≥ 80%: inhibition at 200 ppm [8] | inhibition at 200 ppm [1] | pest or weed control at 200 ppm (Alternaria solani) | pest or weed control at 200 ppm [2] | pest or weed control at 200 ppm [3] | pest or weed control at 200 ppm [4] | inhibition at 200 ppm (Pythium ultimum) | pest or weed control at 200 ppm (Pyrenophora teres) | inhibition at 200 ppm [5] | inhibition at 200 ppm [6] | inhibition at 200 ppm [7] | inhibition at 200 ppm [9]

CCOc1cc(C)nc(-c2cccc(CCCO/N=C(\C)c3cc(C)cc(C)n3)n2)c1 [P.28]
≥ 80%: inhibition at 200 ppm [8] | inhibition at 200 ppm [1] | pest or weed control at 200 ppm [2] | pest or weed control at 200 ppm [3] | inhibition at 200 ppm (Gaeumannomyces graminis) | pest or weed control at 200 ppm [4] | inhibition at 200 ppm (Pythium ultimum) | pest or weed control at 200 ppm (Pyrenophora teres) | inhibition at 200 ppm [5] | inhibition at 200 ppm [6] | inhibition at 200 ppm [7] | inhibition at 200 ppm [9]

C#CCOc1cc(C)nc(-c2cccc(CCCO/N=C(\C)c3cc(C)cc(C)n3)n2)c1 [P.29]
≥ 80%: inhibition at 200 ppm [8] | inhibition at 200 ppm [1] | pest or weed control at 200 ppm (Alternaria solani) | pest or weed control at 200 ppm [2] | pest or weed control at 200 ppm [3] | inhibition at 200 ppm (Gaeumannomyces graminis) | pest or weed control at 200 ppm [4] | pest or weed control at 200 ppm (Pyrenophora teres) | inhibition at 200 ppm [5] | inhibition at 200 ppm [6] | inhibition at 200 ppm [7] | inhibition at 200 ppm [9]

C=CCOc1cc(C)nc(-c2cccc(CCCO/N=C(\C)c3cc(C)cc(C)n3)n2)c1 [P.30]
≥ 80%: inhibition at 200 ppm [8] | inhibition at 200 ppm [1] | pest or weed control at 200 ppm [2] | pest or weed control at 200 ppm [3] | inhibition at 200 ppm (Gaeumannomyces graminis) | pest or weed control at 200 ppm [4] | pest or weed control at 200 ppm (Pyrenophora teres) | inhibition at 200 ppm [5] | inhibition at 200 ppm [6] | inhibition at 200 ppm [7] | inhibition at 200 ppm [9]

CCCOc1cc(C)nc(-c2cccc(CCCO/N=C(\C)c3cc(C)cc(C)n3)n2)c1 [P.31]
≥ 80%: inhibition at 200 ppm [8] | inhibition at 200 ppm [1] | pest or weed control at 200 ppm [2] | pest or weed control at 200 ppm [3] | inhibition at 200 ppm (Gaeumannomyces graminis) | pest or weed control at 200 ppm [4] | pest or weed control at 200 ppm (Pyrenophora teres) | inhibition at 200 ppm [5] | inhibition at 200 ppm [6] | inhibition at 200 ppm [7] | inhibition at 200 ppm [9]

CCc1cc(SC)c(C)c(-c2cccc(CCCO/N=C(\C)c3cccc(C)n3)n2)n1 [P.40]
≥ 80%: inhibition at 200 ppm [8] | inhibition at 200 ppm [1] | pest or weed control at 200 ppm [2] | pest or weed control at 200 ppm [3] | inhibition at 200 ppm (Gaeumannomyces graminis) | pest or weed control at 200 ppm [4] | pest or weed control at 200 ppm (Pyrenophora teres) | inhibition at 200 ppm [5] | inhibition at 200 ppm [6] | inhibition at 200 ppm [7] | inhibition at 200 ppm [9]

CCc1ccc(C)c(-c2cccc(CCCO/N=C(\C)c3cccc(C)n3)n2)n1 [P.42]
≥ 80%: inhibition at 200 ppm [8] | inhibition at 200 ppm [1] | pest or weed control at 200 ppm (Alternaria solani) | pest or weed control at 200 ppm [2] | pest or weed control at 200 ppm [3] | inhibition at 200 ppm (Gaeumannomyces graminis) | pest or weed control at 200 ppm [4] | pest or weed control at 200 ppm (Pyrenophora teres) | inhibition at 200 ppm [5] | inhibition at 200 ppm [6] | inhibition at 200 ppm [7] | inhibition at 200 ppm [9]

COc1cc(C)nc(-c2ccc(OC)c(CCCO/N=C(\C)c3cccc(C)n3)n2)c1 [P.43]
≥ 80%: inhibition at 200 ppm [8] | inhibition at 200 ppm [1] | pest or weed control at 200 ppm [2] | pest or weed control at 200 ppm [3] | inhibition at 200 ppm (Gaeumannomyces graminis) | pest or weed control at 200 ppm [4] | inhibition at 200 ppm (Pythium ultimum) | pest or weed control at 200 ppm (Pyrenophora teres) | inhibition at 200 ppm [5] | inhibition at 200 ppm [6] | inhibition at 200 ppm [7] | inhibition at 200 ppm [9]

C/C(=N\OCCCc1ccnc(-c2cccc(C)n2)n1)c1cccc(C)n1 [P.45, E-1-(6-methyl-2-pyridyl)-N-[3-[2-(6-methyl-2-pyridyl)pyrimidin-4-yl]propoxy]ethanimine]
≥ 80%: inhibition at 200 ppm [8] | inhibition at 200 ppm [1] | pest or weed control at 200 ppm [2] | pest or weed control at 200 ppm [3] | pest or weed control at 200 ppm [4] | inhibition at 200 ppm (Pythium ultimum) | pest or weed control at 200 ppm (Pyrenophora teres) | inhibition at 200 ppm [5] | inhibition at 200 ppm [6] | inhibition at 200 ppm [7] | inhibition at 200 ppm [9]
